Patent US9290529B2, “Carbonic anhydrase inhibitors and method of their production” (USTAV ORGANICKE CHEMIE A BIOCHEMIE AKADEMIE VED CESKE …, priority 2011, dated 2016)

Key:
CCRF-CEM = test: MTT cytotoxicity assay, CCRF-CEM; format: cell-based, human; conditions: 72 h
Description: (§1) One of the parameters used as the basis for colorimetric assays is the metabolic activity of viable cells. For example, a microtiter assay which uses the tetrazolium salt MTT is now widely used to quantitate cell proliferation and cytotoxicity (Hájduch et al., Cytotechnology, 19, 1996, 243-245). For instance, this assay is used in drug screening programs and in chemosensitivity testing. Because tetrazolium salts are cleaved only by metabolically active cells, these assays exclusively detect viable cells. In the case of the MTT assay, yellow soluble tetrazolium salt is reduced to a coloured water-insoluble formazan salt. After it is solubilized, the formazan formed can easily and rapidly be quantified in a conventional ELISA plate reader at 570 nm (maximum absorbancy). The quantity of reduced formazan corresponds to the number of vital cells in the culture.
(§2) All cells were purchased from the […] (ATCC), unless otherwise indicated: the CEM line are highly chemosensitive T-lymphoblastic leukemia cells, K562 cells were derived from patient with […] with bcr-abl translocation, A549 line is lung adenocarcinoma, HCT116 is colorectal tumor cell line and its p53 gene knock-down counterpart (HCT116p53−) is a model of human cancers with p53 mutation frequently associated with poor prognosis. The daunorubicin resistant subline of CEM cells (CEM-DNR bulk) and paclitaxel resistant subline K562-tax were selected in our laboratory by the cultivation of maternal cell lines in increasing concentrations of daunorubicine or paclitaxel, respectively (Noskova et al., Neoplasma 49, 2002, 418). The CEM-DNR bulk cells overexpress MRP-1 protein, while K562-tax cells overexpress P-glycoprotein, both proteins belong to family of ABC transporters and are involved in primary and/or acquired multidrug resistance phenomenon (Noskova et al., Neoplasma 49, 2002, 418). The cells were maintained in Nunc/Corning 80 cm^2 plastic tissue culture flasks and cultured in cell culture medium (DMEM/RPMI 1640 with 5 g/l glucose, 2 mM glutamine, 100 U/ml penicillin, 100 μg/ml streptomycin, 10% fetal calf serum, and NaHCO3).
(§3) This assay was performed according to Hajduch et al., Anti-Cancer Drugs 10, 1997, 1007. Cell suspensions were prepared and diluted according to the particular cell type and the expected target cell density (2 500-30 000 cells/well based on cell growth characteristics). Cells were added by pipette (80 μl) into 96-well microtiter plates. Inoculates were allowed a pre-incubation period of 24 h at 37° C. and 5% CO2 for stabilization. Four-fold dilutions, in 20-μl aliquots, of the intended test concentration were added to the microtiter plate wells at time zero. All test compound concentrations were examined in duplicate. Incubation of the cells with the test compounds lasted for 72 h at 37° C., in a 5% CO2 atmosphere at 100% humidity. At the end of the incubation period, the cells were assayed using MTT. Aliquots (10 μl) of the MTT stock solution were pipetted into each well and incubated for a further 1-4 h. After this incubation period the formazan produced was dissolved by the addition of 100 μl/well of 10% aq SDS (pH=5.5), followed by a further incubation at 37° C. overnight. The optical density (OD) was measured at 540 nm with a Labsystem iEMS Reader MF. Tumor cell survival (TCS) was calculated using the following equation: TCS=(ODdrug-exposed well/mean ODcontrol wells)×100%. The TCS50 value, the drug concentration lethal to 50% of the tumor cells, was calculated from appropriate dose-response curves.

K562 = test: MTT cytotoxicity assay, K562; format: cell-based, human; conditions: 72 h
Description: as §1, §2, §3

CCRF-CEM cells = test: Flow cytometric measurement of intracellular pH (pHi), CA IX negative CCRF-CEM; format: cell-based, human; conditions: carboranes at 1 μM, 24 hour incubation, control 7.362
Method: The effect of carborane CAIX (carbonic anhydrase IX) inhibitors was evaluated on colorectal cancer cell line HCT116 expressing CAIX enzyme versus CA IX negative cell line of T-lymphoblastic leukemia CCRF-CEM. Acetazolamide, a known inhibitor of CAIX, was used as a standard. HCT116/CCRF-CEM cells were cultivated in McCoy/RPMI Media supplemented with 10% FCS and antibiotics and seeded at high density ([…] per 3.5 cm dish) to induce pericellular hypoxia and thus stimulate CA IX expression. Measurement of pHi was assessed as described in Cianchi et al. [Cianchi F., et al. Selective inhibition of carbonic anhydrase IX decreases cell proliferation and induces […] apoptosis in human cancer cells. The Journal of Pharmacology and Experimental Therapeutics, 2010, Vol. 334, No. 3, 710-719].
[…] The pHi was measured by flow cytometry in cell cultures pretreated with 10 μM of pH sensitive probe carboxyseminaphtorhoda-fluor-1-acetoxymethyl ester (SNARF, Invitrogen, CA) for 15 min at 37° C. After incubation, the cells were washed twice with PBS. Because the addition of bicarbonate can affect pHi, all incubation and cell washes were performed in bicarbonate-free buffer. SNARF was excited at 488 nm and emitted at 580 and 640 nm. The ratio of the emission wavelengths at 640/580 nm was then used to estimate the pHi from a calibration curve. The calibration curve was prepared by nigericin clamp technique. In this method, after the SNARF labeling of untreated cells, aliquots of cell suspensions were re-suspended in a high potassium containing buffer at specific pH (usually 6.8, 7.0, 7.2, 7.4, 7.6 and 7.8). The cell suspensions were then clamped at a specific pH value by the addition of 0.03 μM nigericin (Sigma-Aldrich). Nigericin is a ionophore that allows the exchange of H for K ions, thus abolishing the pH gradient across the cell membrane. When the internal and external K concentrations are approximately equal, the pH rapidly equilibrates to the pH of the bathing solution. A total of 20,000 events were acquired on a FACS ARIA II flow cytometer (Becton. Dickinson) for further analysis.
The fluorescent ratio values (640/580 nm) calculated for each pH point were further used to construct calibration curve in Prism software (GraphPad Software, Inc., San Diego, Calif.), from which the pHi values in treated cells were determined (Table 3).

NMRI female mice = test: Dose finding study (MTD, DLT), single intraperitoneal dose; conditions: for dose limiting toxicity (DLT): mouse, in vivo, ip; for maximum tolerated dose (MTD): single dose, intraperitoneally, NMRI female mice
Method: Both compounds were dissolved in 10% dimethylsulfoxide/water (vol/vol) at stock concentration of 10 mg/ml and applied intraperitoneally to NMRI female mice (minimum 3/group) in ascending doses until the MTD was reached. Animals were housed in specific pathogen free conditions, water and food ad libitum.

[1] = Orientational pharmacokinetics, serum concentrations by HPLC; conditions: intraperitoneally at the MTD, female NMRI mice
Method: The ability of compounds to achieve therapeutically relevant concentrations in biological fluids was tested in orientational pharmacokinetics experiment. […] The blood was collected on ice and processed for serum separation within 60 minutes after sampling. Serum was evaporated to dryness on a device ThermoScientific SPD SpeedVac (72 h, 50° C.) until analyzed. Residues were precipitated by the 225 μl of acetonitrile with an addition of 25 μl of 10% SDS (w/w in water), then vortexed for 5 min and centrifuged 5 min at 14000 RPM at a room temperature. Aliquot of the supernatant was transferred into a 250 μl autosampler vial. […] Sensitivity range 0.2 or 0.02 A.U.F.S. (Absorbance Units Full Scale). An Ion-pair reverse phase chromatographic method with an isocratic elution 300 μl/min was used. Sample injection: 20 μl.

| Substance | IC50 (CCRF-CEM) [µM] | IC50 (K562) [µM] | pHi (CCRF-CEM cells) | dose limiting toxicity (DLT) (NMRI female mice) | maximum tolerated dose (MTD) (NMRI female mice) [mg/kg] | T1/2 [1] [h] | pharmacokinetics under in vivo conditions [1] |
| --- | --- | --- | --- | --- | --- | --- | --- |
| 1-methylensulfamide-1,2-dicarba-closo-dodekaborane [CB-1] | 61.8 ± 10.6 | 60.1 ± 3 | 7.429 | – | – | – | – |
| 8-diethyleneoxysulfamide-3,3′-commo-bis(decahydro-1,2-dicarba-3-cobalta(III)-closo-dodekabor)ate (1-) [CB-17] | 95.1 ± 5 | ≥ 100 | 7.412 | – | – | – | – |
| Di(methylenesulfamide)-1,7-dicarba-closo-dodecaborane [CB-20] | 84.5 ± 5.3 | – | 7.422 | – | – | – | – |
| 7-methylensulfamide-(7,8-nido-dicarbaundekaborate) (1-) [CB-2] | – | ≥ 100 | 7.308 | – | – | – | – |
| 8-methylensulfamide-8″-methoxy-3,3′-commo-bis(1,2-dicarba-3-cobalta(III)-closo-dodecabor)ate (1-) [CB-4] | 61.7 ± 17.8 | 74.3 ± 3.7 | 7.385 | somnolence, apathy and local irritation | 125 | 6.5 | linear pharmacokinetics |
| 1-sulfamide-closo-1-carbadodecaborate (1-) [CB-3] | ≥ 100 | ≥ 100 | 7.362 | – | – | – | – |
| 1-methylenesulfamide-3,3′-commo-bis(1,2-dicarba-3-cobalta(III)-closo-dodecabor)ate (1-) [CB-5] | 85.4 ± 22.6 | – | 7.378 | – | – | – | – |
| 8-propylenesulfamide-7-phenyl-(7,8-nido-dicarbaundecabor)ate (1-) [CB-13] | 62 ± 3 | 71.8 ± 1.4 | 7.452 | – | – | – | – |
| 8-ethylaminomethylsulfamide-8″-methoxy-3,3′-commo-bis(decahydro-1,2-dicarba-3-cobalta(III)-closo-dodecabor)ate (1-) [CB-15] | 17.3 ± 1.2 | 17.7 ± 0.7 | 7.472 | – | – | – | – |
| 9-sulfamide-9′-amine-2,2′-commo-bis(1,7,9-trikarba-2-ferra(II)-kloso-dodekabor)ane [CB-12] | ≥ 100 | ≥ 100 | 7.395 | – | – | – | – |
| 1-methylenesulfamide-9-phenyl-1,2-dicarba-closo-dodecaborane and 1-methylene-sulfamide-12-phenyl-1,2-dicarba-closo-dodecaborane [CB-8] | 73.4 ± 6.8 | 71.3 ± 4.2 | 7.427 | – | – | – | – |
| 10-sulfamide-9′-amine-2,2′-commo-(1,7,10-tricarba-1′,7′,9′-tricarba-2-ferra (II)-closo-dodekabor)ane [CB-10] | 79.5 ± 22.7 | – | 7.328 | – | – | – | – |
| 7-methylensulfamide-8-phenyl-(7,8-nido-dikarbaundekabor)ate (1-) [CB-6] | 20.2 ± 1.7 | 27.5 ± 7.1 | 7.352 | – | – | – | – |
| 8-butyloxysulfamide-3,3′-commo-bis(decahydro-1,2-dicarba-3-cobalta(III)-closo-dodekabor)ate (1-) [CB-16] | 89.9 ± 6 | – | 7.442 | somnolence, apathy and local irritation | 166 | 5 | linear pharmacokinetics |
| 1-methylenesulfamide-1,7-dicarba-closo-dodecaborane [CB-19] | 71.9 ± 3.7 | 81 ± 3.3 | 7.319 | – | – | – | – |
